Laboratory results as given in patent publication US10835556B2, “Hydrolyzed tetravalent metal salts and methods of biofilm inhibition” (THE BOARD OF TRUSTEES OF THE UNIVERSITY OF ILLINOIS, priority 2018, dated 2020).
“And” between values parts separate entries of the source, which are not always exact repeats. Equal values may be shown once. “Also recorded” adds a separate entry of the source. Read-outs that look alike come from different tables or passages of the source.

What was measured:
[1] = system: S. sobrinus 6715; experiment: In vitro static biofilm inhibition assay (crystal violet); format: cell-based, Streptococcus sobrinus; settings: 125 μM; for inhibition of biofilm formation of S. sobrinus 6715: BHI 1% sucrose, 20 h
[2] = system: all strains of bacteria tested; parameters: key to the marks not given beside the values; settings: 1 mM-metal
Description: Tooth application may involve exposure to bacteria outside the oral cavity, including the skin and digestive system. CAN, CAS and AgNO3 (1 mM-metal) were tested for their effect on in vitro planktonic growth of bacteria under the conditions listed in FIG. 9.

[3] = system: S. mutans UA159; experiment: In vitro static biofilm inhibition assay (crystal violet), incl. dose response study; format: cell-based, Streptococcus mutans
[4] = system: S. mutans; format: cell-based, Streptococcus mutans
[5] = system: human telomerase immortalized gingival keratinocytes; settings: 24 h incubation, DermaLife K keratinocyte culture media, MTS assay
[6] = system: S. sobrinus; settings: 500 μM, 6 h on 6 h-grown biofilm
Description: (§1) Potential mechanisms of biofilm inhibition by CeO2-NP were first explored by testing the effect of CAS and CAN on planktonic growth (FIG. 8). […] To further explore potential extracellular mechanisms of biofilm inhibition, dispersal assays were carried out on existing S. mutans and S. sobrinus biofilms grown statically for 6 h as described above (96-well plate, BHI, 1% sucrose). After 6 h, the planktonic cells were removed, the adherent biofilm rinsed (0.9% NaCl) and replaced with fresh 200 μL BHI (positive control) or BHI/500 μM CAS (test wells). All wells were allowed to incubate an additional 6 h after which the adherent biofilm was washed, stained and quantified via UV-Vis analysis (37). Biofilm dispersal was calculated similar to inhibition in Equation I via UV-Vis.

[7] = system: S. mutans; settings: 500 μM, 6 h on 6 h-grown biofilm
Description: as §1

Which “inhibition of biofilm formation of S. sobrinus 6715” value [1] does the source give for `O=[N+]([O-])[O-].O=[N+]([O-])[O-].O=[N+]([O-])[O-].O=[N+]([O-])[O-].O=[N+]([O-])[O-].O=[N+]([O-])[O-].[Ce+4].[NH4+].[NH4+]` [CAN, ceric ammonium nitrate] here?
Its value is 44%.

What about the “visible in vitro planktonic growth of bacteria” value [2] of the same molecule?
Its value is “++”.

And the “inhibition of S. mutans biofilm growth” value ([3]; 125 µM)?
The value was 51% and ~40%.

What about the “effect on planktonic growth of S. mutans” value [4] of the same molecule?
The value was “did not inhibit; also recorded: slight growth lag; also recorded: slight lagging effect; also recorded: Non-inhibitory effect”.

And the “toxicity on gingival keratinocytes as compared to AgNO3” value [5]?
The value was “reduced toxicity”.

What does the source list for `O=[N+]([O-])[O-].[Ag+]` [AgNO3, Silver Nitrate, reference compound]?
effect on biofilm growth of S. sobrinus (in words) [1]: incapable of limiting biofilm growth; effect on S. mutans biofilm formation (in words) [3]: slight increase in biofilm growth

`N.N.O=S(=O)(O)O` [(NH4)2SO4, ammonium sulfate, reference compound] was tested. Which “activity in limiting planktonic growth” value [4] did it give?
The value was “not active”.

Which results are given for `O=[N+]([O-])[O-].O=[N+]([O-])[O-].O=[N+]([O-])[O-].[Ce+3]` [Ce(NO3)3, Cerium (III) nitrate, reference compound]?
effect on biofilm growth of S. sobrinus (in words) [1]: incapable of limiting biofilm growth; effect on S. mutans biofilm formation (in words) [3]: slight increase in biofilm growth; also recorded: inactive

What does the source list for ceric ammonium sulfate [CAS]?
inhibition of biofilm formation of S. sobrinus 6715 [1]: 35%; visible in vitro planktonic growth of bacteria [2]: ++; inhibition of S. mutans biofilm growth ([3]; 125 μM): 40%; biofilm dispersal, S. sobrinus [6]: 8%; biofilm dispersal, S. mutans [7]: 6%; effect on planktonic growth of S. mutans [4]: did not inhibit; also recorded: non-significant growth effect; also recorded: Non-inhibitory effect; toxicity on gingival keratinocytes as compared to AgNO3 [5]: reduced toxicity

`O=S(=O)([O-])[O-].[Zn+2]` [ZnSO4, reference compound] was tested. Which “effect on biofilm growth of S. sobrinus (in words)” value [1] did it give?
Its value is “incapable of limiting biofilm growth”.

And the “effect on S. mutans biofilm formation (in words)” value ([3]; 125 μM (metal ion/Ce), BHI 1% sucrose, 37° C., 5% CO2, 20 h)?
The value was “slight increase in biofilm growth”.

How did the IC50 ([3]; read-out: 50% inhibitory concentration (IC50) of biofilm formation) turn out when `N.N.O=[N+]([O-])O.O=[N+]([O-])O.O=[N+]([O-])[O-].O=[N+]([O-])[O-].O=[N+]([O-])[O-].O=[N+]([O-])[O-].[Ce+4]` [CAN, ceric ammonium nitrate] was run?
Its IC50 is 137 µM.
